# Read-outs that look alike come from different tables or passages of the source.
# Columns and labels:
# Rec-1 cells = assay: Cell viability assay (CellTiter-Glo), Rec-1 cells; type: cell-based
# Text: (§1) This example evaluates effects of CTM-mediated degradation on cell viability. […] Mino and Rec-1 are models of Mantle Cell Lymphoma, which is sensitive to IMiDs.
# TMD8 C481S cells = assay: Cell viability assay (CellTiter-Glo), TMD8 C481S cells; settings: for EC50: Homo sapiens, TMD8, 72 h; for EMAX (% viable cells): TMD8 C481S cells, treatment time 72 h
# Mino cells = assay: Cell viability assay (CellTiter-Glo), Mino cells; type: cell-based; settings: Mino cells, treatment time 72 h
# Text: as §1
# TMD8 cells [1] = assay: Cell viability assay (CellTiter-Glo), TMD8 cells; settings: for EC50: Homo sapiens, TMD8, 72 h; for EMAX (% viable cells): TMD8 cells, treatment time 72 h
# Description: (§6) Cell viability was determined using CellTiter-Glo 2.0 Luminescent Cell Viability Assay (Promega, G9242), which quantitates the amount of ATP present as a proxy for the number of viable cells in culture. Cells were plated with densities between 2000-4000 cells per well in 96-well plates. […] CellTiter-Glo reagent was added to cells at a dilution of 1:20, and the plate was incubated ten minutes at room temperature prior to reading the luminescence signal using an EnVision plate reader. Controls included cells treated with DMSO and wells that contained no cells, only media. Background luminescence signal was determined by control wells containing no cells, only media, and was then subtracted from all sample wells. Luminescence values were then normalized to DMSO-treated wells and reported at proportion viable cells.
# (§7) Here, the ability of CTMs to affect viability in BTK-dependent cell lines was assessed.
# [2] = tested on: B cell receptor (BCR) signaling; assay: B cell activation assay (flow cytometry), human B cells; type: cell-based; settings: treatment 4 h, IgM stimulation 18 h
# Description: (§2) Compound was present throughout the stimulation. Cells were stained with Live/Dead dye (Fisher L34976) and then fluorophore-conjugated antibodies against CD20 (Biolegend 302330), CD3 (BD Pharmingen 557705), CD86 (Biolegend 305416) and CD69 (Biolegend 310906). Stained cells were fixed in PFA and run on an Attune N×T Acoustic Focusing Flow Cytometer (Thermo-Fisher A29004), and data was analyzed using FlowJo (v10.5.3) and GraphPad Prism (v7.00) software. Single live lymphocytes were gated for B cells (CD20+CD3−) and T cells (CD3+CD20−), and the geometric mean fluorescence intensity (MFI) of CD86 and CD69 was calculated for each population. The MFI of the unstimulated sample was used to quantify baseline activation.
# (§3) This example evaluates whether CTM treatment affects B cell receptor (BCR) signaling. BTK is activated downstream of the B cell receptor and leads to upregulation of activation markers CD86 and CD69 on the surface of B cells.
# [3] = tested on: B cell receptor (BCR) signaling; assay: B cell activation assay (flow cytometry), mouse B cells; type: cell-based; settings: treatment 4 h, IgM stimulation 18 h
# Description: as §2, §3
# TMD8 cells [4] = settings: human, 72 h
# Description: as §6, §7
# BTK [5] = target: T1, BTK (Mus musculus, UniProt P35991); assay: In vivo degradation of BTK in mouse PD experiments with oral dosing; settings: oral dose 3 mg/kg, blood, flow cytometry
# T1 construct: from tissue; host or cells: mouse blood B cells / splenocytes (CD-1 or BALB/c)
# Outline: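 CD-1 or BALB/c mice dosed by oral gavage, screens at 90 mg/kg for 6 h, later at lower doses/longer times. Blood or splenocyte BTK measured by intracellular flow cytometry (or HTRF); % degradation from B-cell minus T-cell BTK geometric MFI, relative to vehicle.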
# TMD8 tumor cells = assay: TMD8 xenograft efficacy study (wild-type BTK); type: in vivo, mouse; settings: TMD8 WT, PO, 30 mg/kg, QD, 21 days of dosing
# Description: […] Tumor growth inhibition (% TGI) were calculated on the final day of measurement using the equation [1−(T−T0/C−T0)]×100, where T and C represent the mean size of tumors in the treated (T) and control (C) groups, and T0 refers to the tumor size at randomization.
# (§4) This example examines the activity of various BTK CTMs in relevant disease models, including the WT and C481S TMD8 model, which models B cell malignancies with/without inhibitor-driven BTK mutations at C481.
# [6] = PK data for BTK CTMs (in vivo plasma concentrations); settings: for Vd: read-out: Volume of Distribution
# Text: The present example evaluates in vivo plasma concentrations of BTK CTMs to develop PK-PD-efficacy relationship and predict human exposure.
# BTK [7] = target: BTK (Homo sapiens, UniProt Q06187); assay: BTK remaining in TMD8 WT mouse xenograft study; type: in vivo; design: from tissue; host or cells: TMD8 xenograft in CB.17 SCID mice; settings: PO, 30 mg/kg, QD, 21 days of dosing
# Text: Efficacy in Mouse Xenograft Models
# as §4
# primary human T cells [8] = assay: T cell activation assay, IL-2 secretion (ELISA); type: cell-based
# Outline: (§5)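 Primary human T cells stimulated via TCR with anti-CD3/anti-CD28 in the presence of test compound. IL-2 secretion measured by ELISA; surface CD25 and CD69 by flow cytometry. Values are fold-change versus anti-CD3/anti-CD28 stimulation without compound.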
# BTK C481S = BTK C481S (Homo sapiens, UniProt Q06187, C481S); assay: BTK degradation (Total BTK HTRF) in TMD8 cells expressing BTK-C481S; type: cell-based; design: endogenous in cells; host or cells: TMD8 BTK-C481S (clone2C3), Cas9 RNP knock-in; settings: TMD8 BTK-C481S (clone2C3) cells, treatment time 4 h
# Description: BTK levels were determined using Cisbio Total-BTK HTRF (Homologous Time-Resolved Fluorescence) kit (63ADK064PEG) according to the manufacturer's protocol. Briefly, cells were incubated in 1× supplied lysis buffer for 30 minutes. In an opaque white low volume 96-well plate (Cisbio, 66PL96005), cell lysate was combined with two different specific BTK antibodies, one conjugated with Eu^3+-Cryptate FRET donor and one conjugated with d2 FRET acceptor. Assay controls include wells containing cell lysate with only the Eu^3+-Cryptate FRET donor antibody and wells containing both HTRF antibodies and lysis buffer without cells or control lysate provided by Cisbio. HTRF ratio was calculated as (acceptor signal at 665 nm/donor signal at 620 nm)×10^4. Background HTRF levels were determined from the control well containing the donor, but no acceptor, antibody. Background HTRF levels were subtracted from all samples. Readouts were reported as HTRF levels relative to HTRF levels of DMSO-treated cells. Four-parameter non-linear regressions were performed in GraphPad Prism 7.02 to obtain DC50 values.
# BTK Degradation (Total BTK HTRF) at Four Hours in TMD8 Cells Expressing BTK-C481S
# This example evaluates the potency of CTM in degrading […]. The BTK binding moieties utilized in CTMs bind to the BTK active site. This example evaluates whether the active site mutation C481S affects CTM-induced degradation of BTK.
# primary human T cells [9] = assay: T cell activation assay, CD25 and CD69 staining (flow cytometry); type: cell-based; settings: fold-change of response relative to baseline
# Outline: as §5
# [10] = Rat Sprague-Dawley, 10 mg/kg PO
SMILES,EC50 (TMD8 C481S cells),EMAX (% viable cells) (TMD8 C481S cells),EC50 (TMD8 cells [1]),EMAX (% viable cells) (TMD8 cells [1]),EC50 ([3]; read-out: CD69 EC50),EC50 ([3]; read-out: CD86 EC50),% BTK Remaining (BTK [5]; 6 h),% BTK Remaining (BTK [5]; 24 h),Tumor Growth Inhibition (relative to vehicle) (TMD8 tumor cells),"AUC ([6]; Mouse Balb/c, 1 mg/kg IV)","clearance ([6]; Mouse Balb/c, 1 mg/kg IV)","Vd ([6]; Mouse Balb/c, 1 mg/kg IV)","AUC ([6]; Mouse Balb/c, 30 mg/kg PO)","bioavailability ([6]; Mouse Balb/c, 30 mg/kg PO)",BTK Remaining (% relative to vehicle) (BTK [7]),DC50 (BTK C481S),further results
"CC#CC(=O)N1CCC[C@H]1c1nc(-c2ccc(C(=O)Nc3ccccn3)cc2)c2c(N)nccn12 [Acalabrutinib, acalabrutinib, reference compound]",> 2000 nM,96%,12 nM,35%,1 nM,3 nM,,,,,,,,,,,"EC50 (Rec-1 cells; Homo sapiens, Rec1, treatment time 72 h): 582 nM; EMAX (% viable cells) (Rec-1 cells; treatment time 72 h): 76%; EC50 (Mino cells; Homo sapiens): 1240 nM; EMAX (% viable cells) (Mino cells): 84%; EC50 ([2]; read-out: CD69 EC50): 2 nM; EC50 ([2]; read-out: CD86 EC50): 3 nM"
CN1CCN([C@@H]2CCCN(c3cnc(C(N)=O)c(Nc4ccc(C5(C)CCN(CCCCc6cccc7c6CN(C6CCC(=O)NC6=O)C7=O)CC5)cc4)n3)C2)C1=O (stereo partly drawn) [Compound 21],,,1.6 nM,,,,,,,,,,,,,,EMAX (% viable cells) (TMD8 cells [4]): 19%
CN1CCN([C@@H]2CCCN(c3cnc(C(N)=O)c(Nc4ccc(C5CN(C6CCN(c7ccc8c(c7)C(=O)N(C7CCC(=O)NC7=O)C8=O)CC6)C5)cc4)n3)C2)C1=O (stereo partly drawn) [Compound 37],51.7 nM,16%,21.1 nM,10%,0.1 nM,0.2 nM,26%,51%,41%,1.77 µM·h,12 mL/min/kg,1.2 L/kg,1.79 µM·h,5%,16%,2.7 nM,"AUC ([6]; Rat Sprague-Dawley, 1 mg/kg IV): 0.59 µM·h; clearance ([6]; Rat Sprague-Dawley, 1 mg/kg IV): 36.3 mL/min/kg; Vd ([6]; Rat Sprague-Dawley, 1 mg/kg IV): 4.6 L/kg; AUC [6, 10]: 0.027 µM·h; bioavailability [6, 10]: 1%; IL-2 Secretion Anti-CD3/Anti-CD28 Stimulation (primary human T cells [8]; 1.4 nM, fold-change of response relative to baseline): 1.16; IL-2 Secretion Anti-CD3/Anti-CD28 Stimulation (primary human T cells [8]; 37 nM, fold-change of response relative to baseline): 2.06; IL-2 Secretion Anti-CD3/Anti-CD28 Stimulation (primary human T cells [8]; 333 nM, fold-change of response relative to baseline (stimulation without compound)): 1.64; CD25 Staining Anti-CD3/Anti-CD28 Stimulation (primary human T cells [9]; 1.4 nM): 1.11; CD69 Staining Anti-CD3/Anti-CD28 Stimulation (primary human T cells [9]; 1.4 nM): 1.08; CD25 Staining Anti-CD3/Anti-CD28 Stimulation (primary human T cells [9]; 37 nM): 0.79; CD69 Staining Anti-CD3/Anti-CD28 Stimulation (primary human T cells [9]; 37 nM): 0.77; CD25 Staining Anti-CD3/Anti-CD28 Stimulation (primary human T cells [9]; 333 nM): 0.43; CD69 Staining Anti-CD3/Anti-CD28 Stimulation (primary human T cells [9]; 333 nM): 0.45"
CN1CCN([C@H]2CCCN(c3cnc(C(N)=O)c(Nc4cnn(C5CCN(CC6CCN(c7ccc8c(c7)C(=O)N(C7CCC(=O)NC7=O)C8=O)CC6)CC5)c4)n3)C2)C1=O (stereo partly drawn) [Compound 83],4.32 nM,52%,1.66 nM,38%,0.08 nM,0.1 nM,48%,63%,39%,0.29 µM·h,68.3 mL/min/kg,4 L/kg,0.81 µM·h,9%,22%,2.7 nM,

# From patent publication US12600732B2, “Bifunctional compounds for degrading BTK via ubiquitin proteosome pathway” (NURIX THERAPEUTICS, INC., priority 2019, dated 2026)
